*1 amine or outer side, *2 acyl side, *3 side chain or, on linkers, in order; H or OH if unused. Where a SMILES comes first, the peptide text is derived from it. Bridges are numbered along the chain shown (N, C = ends). [ ]: non-standard residue; d: D form. The star is where a group is joined. X1 = COc1cc2cc(c1Cl)N(C)C(=O)C[C@H](OC(=O)[C@H](C)N(C)C(=O)CCSSC(C)CCC(=O)*)[C@]1(C)O[C@H]1[C@H](C)[C@@H]1C[C@@](O)(NC(=O)O1)[C@H](OC)/C=C/C=C(\C)C2; 1Nal = N[C@@H](Cc1cccc2ccccc12)C(=O)O; TBMB = c1c(C[*:1])cc(C[*:3])cc1C[*:2]; Tle = CC(C)(C)[C@H](N)C(=O)O; βAla = NCCC(=O)O; Sar = CNCC(=O)O
Tests used:
HCT-15 xenograft = assay: In vivo efficacy of BT1718 in HCT-15 xenograft; set-up: species or system Mus Musculus
Experimental: The objective of this study was to evaluate the in vivo anti-tumor efficacy of BT1718in treatment of HT1080, NCI-H292, NCI-H1975, MDA-MB-231, HCC1806, RPMI2650, HCT-15, HT-29 and SNU-16 xenograft in BALB/c nude mice.
The HT1080, NCI-H292, NCI-H1975, MDA-MB-231, HCC1806, RPMI2650, HCT-15, HT-29 and SNU-16 tumor cells were maintained in vitro as a monolayer culture in medium supplemented with 10% heat inactivated fetal bovine serum at 37° C. in an […]. The tumor cells will be routinely subcultured twice weekly by trypsin-EDTA treatment. The cells growing in an exponential growth phase will be harvested and counted for tumor inoculation.
Mouse was inoculated subcutaneously at the right flank with tumor cells for tumor development. The animals were randomized and treatment was started when the average tumor reaches certain volume for the efficacy study, the inoculating cell amounts and starting tumor size were shown as below in Table 9. The test article administration and the animal numbers in each group were shown in the experimental design in Table 10.
(§1) All the procedures related to animal handling, care and the treatment in the study were performed according to the guidelines of the Association for Assessment and Accreditation of Laboratory Animal Care (AAALAC). At the time of routine monitoring, the animals were daily checked for any effects of tumor growth and treatments on normal behavior such as mobility, food and water consumption (by looking only), body weight gain/loss (body weights were measured every day), eye/hair matting and any other abnormal effect as stated in the protocol. Death and observed clinical signs were recorded on the basis of the numbers of animals within each subset.
(§2) The major endpoint was to see if the tumor growth could be delayed or mice could be cured. Tumor size was measured three times weekly in two dimensions using a caliper, and the volume was expressed in mm^3 using the formula: V=0.5 a×b^2 where a and b are the long and short diameters of the tumor, respectively. The tumor size was then used for calculations of T/C value. The T/C value (in percent) is an indication of antitumor effectiveness; T and C are the mean volumes of the treated and control groups, respectively, on a given day.
(§3) TGI was calculated for each group using the formula: TGI (%)=[1−(Ti−T0)/(Vi−V0)]×100; Ti is the average tumor volume of a treatment group on a given day, T0 is the average tumor volume of the treatment group on the day of treatment start, Vi is the average tumor volume of the vehicle control group on the same day with Ti, and V0 is the average tumor volume of the vehicle group on the day of treatment start.
Summary statistics, including mean and the standard error of the mean (SEM), are provided for the tumor volume of each group at each time point.
Statistical analysis of difference in tumor volume among the groups was conducted on the data obtained at the best therapeutic time point after the final dose.
A one-way ANOVA was performed to compare tumor volume among groups, and when a significant F-statistics (a ratio of treatment variance to the error variance) was obtained, comparisons between groups were carried out with Games-Howell test. All data were analyzed using Prism. P<0.05 was considered to be statistically significant.

LU-01-0486 PDX model = format: in vivo, Mus Musculus; conditions: 3 or 10 mg/kg
Experimental: The objective of this study was to evaluate the in vivo anti-tumor efficacy of BT1718 in the treatment of MT1-MMP low-expressing LU-01-0486 PDX model in female Balb/C nude mice
Each mouse was inoculated subcutaneously at the right flank with LU-01-0486 of tumor fragment (30 mm^3) for tumor development. The treatments was started when the average tumor volume reaches 164 mm^3.
as §1, with “following” for “according to”, “guidance” for “guidelines”, “twice weekly),” for “every day),”
as §2, with “two” for “three”, “The T/C value (in percent) is an indication of antitumor effectiveness; T and C are the mean volumes of the treated and control groups, respectively, on a given day.” left out
as §3, with “start. […]” for “start.”
A one-way ANOVA was performed to compare tumor volume among groups, and when a significant F-statistics (a ratio of treatment variance to the error variance) was obtained, comparisons between groups were carried out with Games-Howell test. All data were analyzed using Prism. […]

COc1cc2cc(c1Cl)N(C)C(=O)C[C@H](OC(=O)[C@H](C)N(C)C(=O)CCSSC(C)CCC(=O)NCCC(=O)N(C)CC(=O)N(C)CC(=O)N(C)CC(=O)N(C)CC(=O)N(C)CC(=O)N(C)CC(=O)N(C)CC(=O)N(C)CC(=O)N(C)CC(=O)N(C)CC(=O)N[C@@H](C)C(=O)N[C@H]1CSCc3cc4cc(c3)CSC[C@H](NC(=O)[C@@H](C)NC(=O)[C@H](Cc3cccc5ccccc35)NC(=O)[C@H](CCC(=O)O)NC(=O)[C@H](CC(N)=O)NC(=O)[C@@H](C)NC1=O)C(=O)N[C@@H](CCC(=O)O)C(=O)N[C@@H](CC(=O)O)C(=O)N[C@@H](Cc1ccccc1)C(=O)N[C@@H](Cc1ccc(O)cc1)C(=O)N[C@@H](CC(=O)O)C(=O)N[C@@H](C(C)(C)C)C(=O)N[C@H](C(N)=O)CSC4)[C@]1(C)O[C@H]1[C@H](C)[C@@H]1C[C@@](O)(NC(=O)O1)[C@H](OC)/C=C/C=C(\C)C2 (some centres unmarked) [BT1718] ({X1-βAla}-[Sar][Sar][Sar][Sar][Sar][Sar][Sar][Sar][Sar][Sar]AC[dA]NE[1Nal][dA]CEDFYD[Tle]C-NH2; linker 12-18-25 via TBMB (inferred))
Body Weight (HCT-15 xenograft; 1 mpk biw, day 0): 22.2 ± 0.5 g | Tumor Volume (HCT-15 xenograft; 1 mpk biw, day 0): 157 ± 6 mm^3 | Body Weight (HCT-15 xenograft; 1 mpk biw, day 2): 21.8 ± 0.3 g | Tumor Volume (HCT-15 xenograft; 1 mpk biw, day 2): 174 ± 9 mm^3 | Body Weight (HCT-15 xenograft; 1 mpk biw, day 4): 21.6 ± 0.6 g | Tumor Volume (HCT-15 xenograft; 1 mpk biw, day 4): 207 ± 14 mm^3 | Body Weight (HCT-15 xenograft; 1 mpk biw, day 7): 22.3 ± 0.5 g | Tumor Volume (HCT-15 xenograft; 1 mpk biw, day 7): 385 ± 19 mm^3 | Body Weight (HCT-15 xenograft; 1 mpk biw, day 9): 21.9 ± 0.3 g | Tumor Volume (HCT-15 xenograft; 1 mpk biw, day 9): 585 ± 26 mm^3 | Body Weight (HCT-15 xenograft; 1 mpk biw, day 11): 21.9 ± 0.5 g | Tumor Volume (HCT-15 xenograft; 1 mpk biw, day 11): 937 ± 70 mm^3 | Body Weight (HCT-15 xenograft; 1 mpk biw, day 14): 22.1 ± 0.5 g | Tumor Volume (HCT-15 xenograft; 1 mpk biw, day 14): 1238 ± 36 mm^3 | Body Weight (HCT-15 xenograft; 3 mpk biw, day 0): 21.6 ± 0.5 g | Tumor Volume (HCT-15 xenograft; 3 mpk biw, day 0): 157 ± 6 mm^3 | Body Weight (HCT-15 xenograft; 3 mpk biw, day 2): 21.4 ± 0.2 g | Tumor Volume (HCT-15 xenograft; 3 mpk biw, day 2): 140 ± 7 mm^3 | Body Weight (HCT-15 xenograft; 3 mpk biw, day 4): 21.6 ± 0.2 g | Tumor Volume (HCT-15 xenograft; 3 mpk biw, day 4): 195 ± 26 mm^3 | Body Weight (HCT-15 xenograft; 3 mpk biw, day 7): 22.7 ± 0.4 g | Tumor Volume (HCT-15 xenograft; 3 mpk biw, day 7): 389 ± 47 mm^3 | Body Weight (HCT-15 xenograft; 3 mpk biw, day 9): 22.2 ± 0.4 g | Tumor Volume (HCT-15 xenograft; 3 mpk biw, day 9): 581 ± 54 mm^3 | Body Weight (HCT-15 xenograft; 3 mpk biw, day 11): 22.2 ± 0.5 g | Tumor Volume (HCT-15 xenograft; 3 mpk biw, day 11): 901 ± 79 mm^3 | Body Weight (HCT-15 xenograft; 3 mpk biw, day 14): 22.3 ± 0.6 g | Tumor Volume (HCT-15 xenograft; 3 mpk biw, day 14): 1180 ± 143 mm^3 | Body Weight (HCT-15 xenograft; 10 mpk biw, day 0): 22.2 ± 0.3 g | Tumor Volume (HCT-15 xenograft; 10 mpk biw, day 0): 157 ± 11 mm^3 | Body Weight (HCT-15 xenograft; 10 mpk biw, day 2): 21.2 ± 0.2 g | Tumor Volume (HCT-15 xenograft; 10 mpk biw, day 2): 130 ± 7 mm^3 | Body Weight (HCT-15 xenograft; 10 mpk biw, day 4): 20.2 ± 0.5 g | Tumor Volume (HCT-15 xenograft; 10 mpk biw, day 4): 138 ± 14 mm^3 | Body Weight (HCT-15 xenograft; 10 mpk biw, day 7): 21.7 ± 0.3 g | Tumor Volume (HCT-15 xenograft; 10 mpk biw, day 7): 265 ± 16 mm^3 | Body Weight (HCT-15 xenograft; 10 mpk biw, day 9): 19.9 ± 0.3 g | Tumor Volume (HCT-15 xenograft; 10 mpk biw, day 9): 342 ± 47 mm^3 | Body Weight (HCT-15 xenograft; 10 mpk biw, day 11): 20.3 ± 0.7 g | Tumor Volume (HCT-15 xenograft; 10 mpk biw, day 11): 562 ± 73 mm^3 | Body Weight (HCT-15 xenograft; 10 mpk biw, day 14): 20.8 ± 0.8 g | Tumor Volume (HCT-15 xenograft; 10 mpk biw, day 14): 880 ± 89 mm^3 | Best response at 10 mg/kg (HCT-15 xenograft; HCT-15, 10 mg/kg): Growth delay | TGI (HCT-15 xenograft; HCT-15, 1 mpk, biw, day 14): −0.9% | Tumor Volume (HCT-15 xenograft; HCT-15, 1 mpk, biw, day 14): 1238 ± 36 mm^3 | TGI (HCT-15 xenograft; HCT-15, 3 mpk, biw, day 14): 4.6% | Tumor Volume (HCT-15 xenograft; HCT-15, 3 mpk, biw, day 14): 1180 ± 143 mm^3 | TGI (HCT-15 xenograft; HCT-15, 10 mpk, biw, day 14): 32.5% | Tumor Volume (HCT-15 xenograft; HCT-15, 10 mpk, biw, day 14): 880 ± 89 mm^3 | Minimally Effective Dose IV BIW (HCT-15 xenograft; HCT-15, dose leading to tumor-stasis): >10 mg/kg | anti-tumor activity (HCT-15 xenograft; mouse, in vivo): did not show obvious anti-tumor activity | body weight effect (LU-01-0486 PDX model): no significant effect on body weight | tumor growth (LU-01-0486 PDX model): limited inhibition of tumor growth

— US10441663B2, “Methods for treating cancer” (Bicycle Therapeutics Limited, priority 2016, dated 2019)
